Source: ChEMBL document CHEMBL1123995, “N-sulfonyl imidates as a novel prodrug form for an ester function or a sulfonamide group” (J Med Chem, 1988)

How the values were obtained:
Format in all cases: ADME
[1] = Half-life of hydrolysis at pH 6.0 at 37 degree C; details: buffer
[2] = Half-life of hydrolysis at pH 7.4 at 37 degree C; details: buffer
[3] = Half life of 80% diluted human plasma with 0.01 M phosphate buffer of pH 7.4; details: 80% human plasma
[4] = Half-life of hydrolysis at pH 4.0 at 37 degree C; details: buffer

Q: Which half-life [1] does the source give for CCO/C=N\S(=O)(=O)c1ccc(C)cc1 here?
A: The half-life was 0.02 h.

Q: What about the half-life [2] of the same compound?
A: Its half-life is 0.0133 h.

Q: And the half-life [3]?
A: The half-life was less than 0.0167 h.

Q: What does the source list for CCO/C(=N\S(=O)(=O)c1ccc(C)cc1)c1ccccc1?
A: half-life [1]: 3.67 h; half-life [2]: 2.92 h; half-life [3]: 0.333 h

Q: With CCCC/C(=N/S(=O)(=O)c1ccc(C)cc1)OC as the compound, how does the half-life [2] read?
A: The half-life was 2.67 h.

Q: And the half-life [3]?
A: The half-life was 0.467 h.

Q: Which half-life [2] does the source give for CCCO/C(=N\S(=O)(=O)c1ccc(C)cc1)c1ccccc1 here?
A: Its half-life is 2.92 h.

Q: And the half-life [3]?
A: The half-life was 0.333 h.

Q: For Cc1ccc(S(=O)(=O)/N=C(\OCC(=O)N(C)C)c2ccccc2)cc1, which half-life [2] is on record?
A: The half-life was 2.4 h.

Q: And the half-life [3]?
A: Its half-life is 0.0333 h.

Q: Which results are given for Cc1ccc(S(=O)(=O)/N=C(\OCCN(C)C)c2ccccc2)cc1.Cl?
A: half-life [2]: 0.045 h; half-life [4]: 0.583 h; half-life [3]: < 0.0167 h

Q: Which half-life [2] does the source give for Cc1ccc(S(=O)(=O)/N=C(\OCCN2CCCCC2)c2ccccc2)cc1.Cl here?
A: Its half-life is 0.0217 h.

Q: And the half-life [4]?
A: Its half-life is 0.583 h.

Q: And the half-life [3]?
A: The half-life was less than 0.0167 h.

Q: For Cc1ccc(S(=O)(=O)/N=C(\OCCCN(C)C)c2ccccc2)cc1.Cl, which half-life [2] is on record?
A: The half-life was 0.183 h.

Q: What about the half-life [4] of the same compound?
A: The half-life was 0.883 h.

Q: What about the half-life [3] of the same compound?
A: Its half-life is 0.0667 h.

Q: Which results are given for Cc1ccc(S(=O)(=O)/N=C(\OC2CCN(C)CC2)c2ccccc2)cc1.Cl?
A: half-life [1]: 1.5 h; half-life [2]: 1.48 h; half-life [3]: 0.6 h

Q: Which half-life [1] does the source give for CO/C(C)=N\S(=O)(=O)c1ccc(C)cc1 here?
A: The half-life was 2.5 h.

Q: And the half-life [2]?
A: Its half-life is 1.38 h.

Q: And the half-life [3]?
A: The half-life was 0.135 h.

Q: For CCC/C(=N/S(=O)(=O)c1ccc(C)cc1)OC, which half-life [2] is on record?
A: Its half-life is 2.42 h.

Q: What about the half-life [3] of the same compound?
A: Its half-life is 0.533 h.

Q: With CCOC(=NS(=O)(=O)c1ccc(C)cc1)OCC as the compound, how does the half-life [2] read?
A: Its half-life is 26.3 h.

Q: What about the half-life [3] of the same compound?
A: The half-life was 1.3 h.

Q: Which half-life [2] does the source give for CO/C(=N\S(=O)(=O)c1ccc(C)cc1)c1ccccc1 here?
A: The half-life was 1.9 h.

Q: What about the half-life [3] of the same compound?
A: The half-life was 0.117 h.

Q: What does the source list for CCO/C(CC)=N\S(=O)(=O)c1ccc(C)cc1?
A: half-life [2]: 1.8 h; half-life [3]: 0.4 h

Q: With Cc1ccc(S(=O)(=O)/N=C(\OCCN2CCCC2=O)c2ccccc2)cc1 as the compound, how does the half-life [2] read?
A: The half-life was 1.25 h.

Q: And the half-life [3]?
A: Its half-life is 0.08 h.

Q: Which half-life [1] does the source give for COC(=NS(=O)(=O)c1ccc(C)cc1)OC here?
A: The half-life was 14.5 h.

Q: What about the half-life [2] of the same compound?
A: The half-life was 4.25 h.

Q: What about the half-life [3] of the same compound?
A: The half-life was 0.533 h.

Q: For Cc1ccc(S(=O)(=O)/N=C(\OC(C)C)c2ccccc2)cc1, which half-life [1] is on record?
A: The half-life was 23 h.

Q: What about the half-life [2] of the same compound?
A: The half-life was 17.4 h.

Q: And the half-life [3]?
A: Its half-life is 3.25 h.

Q: What does the source list for CCO/C(C)=N\S(=O)(=O)c1ccc(C)cc1?
A: half-life [1]: 2.92 h; half-life [2]: 2.4 h; half-life [3]: 0.107 h

Q: For Cc1ccc(S(=O)(=O)/N=C(\Oc2ccccc2C(=O)OCC(=O)N(C)C)c2ccccc2)cc1, which half-life [1] is on record?
A: The half-life was 1.55 h.

Q: And the half-life [2]?
A: Its half-life is 1.52 h.

Q: What about the half-life [3] of the same compound?
A: Its half-life is 0.01 h.
